Assays:
AIMP2-DX2 protein = experiment: Western blot of AIMP2-DX2 protein expression level in H460 cells; format: cell-based, human; conditions: HSP70 or HSP90 inhibitor treatment
[1] = test system: 293T cells overexpressing Strep-AIMP2-DX2; experiment: MTT assay of cell growth by AIMP2-DX2 in 293T cells overexpressing Strep-AIMP2-DX2; format: cell-based; conditions: inhibitors 12 hours or si-HSP70
Protocol: The HSP70 inhibitors Pifithrin-u (PES), and VER155008 (VER) and the HSP90 inhibitors Geldanamycin (Gel) and PUH71(Pu) were treated on 293T cells overexpressing Strep-AIMP2-DX2 and 293T cells not over-expressing, respectively for 12 hours, and MTT (Amresco) assay was performed. Each experiment was performed three times independently. Strep-AIMP2-DX2 was overexpressed in 293T cells, in which HSP70 expression was reduced using HSP70-specific si-RNA (si-HSP70), and MTT assay was performed. Each experiment was performed three times independently.

H460 cells xenograft = experiment: H460 xenograft in Balb/c nude mice; format: in vivo
Protocol: After the end of the experiment, the tumors were separated and weighed. The body weight and tumor size of the experimental animals were measured twice a week.

A549 (Lung cancer cells) = experiment: MTT assay of cell activity in A549 lung cancer cells; format: cell-based; conditions: 2.5, 5, 10, 20, 40 uM
[2] = test system: WI-26 (Normal lung cells); experiment: MTT assay of cell activity in WI-26 normal lung cells; conditions: 2.5, 5, 10, 20, 40 uM

| Compound | expression level of AIMP2-DX2 protein after inhibitor treatment (AIMP2-DX2 protein) | increase in cell growth by AIMP2-DX2 [1] | growth of cancer cells (tumor volume) (H460 cells xenograft; 50 mg/kg, 5 times a week, 10 times in total, compared with Taxol 15 mpk) | tumor weight (H460 cells xenograft; 50 mg/kg, tumors separated and weighed at end of experiment) | body weight of mice (H460 cells xenograft; during the course of the experiment) | effect on lung cancer cell A549 (cell activity, MTT) (A549 (Lung cancer cells)) | effect on normal lung cell WI-26 (cell activity, MTT) [2] |
| --- | --- | --- | --- | --- | --- | --- | --- |
| N#Cc1ccc(COC[C@H]2O[C@@H](n3c(NCc4ccc(Cl)c(Cl)c4)nc4c(N)ncnc43)[C@H](O)[C@@H]2O)cc1 [VER, VER155008] | decreased | No increase in cell growth by AIMP2-DX2 was observed | – | – | – | – | – |
| Cc1ccc(S(=O)(=O)N[C@@H](Cc2c[nH]c3ccccc23)C(=O)Nc2ccc(N3CCOCC3)cc2)cc1 [BC-DXI-495] | – | – | inhibited to a degree similar to that of the control group Taxol | tumor suppressive effect was also confirmed in the tumor weight | no effect on the body weight | only lung cancer cells induce apoptosis | without any effect on normal cells |
| NS(=O)(=O)C#Cc1ccccc1 [PES, Pifithrin-u] | decreased | No increase in cell growth by AIMP2-DX2 was observed | – | – | – | – | – |
| CC(C)NCCCn1c(Sc2cc3c(cc2I)OCO3)nc2c(N)ncnc21 [PU, PUH71] | not affected | – | – | – | – | – | – |

From patent US11442057B2, “Method for screening anticancer agent inhibiting binding of AIMP2-DX2 and HSP70” (MEDICINAL BIOCONVERGENCE RESEARCH CENTER, priority 2016, dated 2022)
